Measured values as given in ChEMBL document CHEMBL3879907, “8-azabicyclo[3.2.1]octane compounds as mu opioid receptor antagonists” (2014).

Experiments:
[1] = target: Delta-type opioid receptor (Homo sapiens, UniProt P41143); assay: Displacement of [3H]-diprenorphine from human delta opioid receptor expressed in cell membranes
[2] = target: Kappa-type opioid receptor (Cavia porcellus, UniProt P41144); assay: Displacement of [3H]-diprenorphine from guinea pig kappa opioid receptor expressed in CHOK1 cell membranes; settings: cho-k1
[3] = target: Mu-type opioid receptor (Homo sapiens) (UniProt P35372); assay: Intrinsic activity at human mu opioid receptor expressed in CHOK1 cell membranes at 0.00001 to 20 uM after 30 mins by GTP-Eu nucleotide exchange assay relative to DAMGO; format: functional; settings: CHO-K1
Mu-type opioid receptor (Homo sapiens), sequence (P35372 whole entry): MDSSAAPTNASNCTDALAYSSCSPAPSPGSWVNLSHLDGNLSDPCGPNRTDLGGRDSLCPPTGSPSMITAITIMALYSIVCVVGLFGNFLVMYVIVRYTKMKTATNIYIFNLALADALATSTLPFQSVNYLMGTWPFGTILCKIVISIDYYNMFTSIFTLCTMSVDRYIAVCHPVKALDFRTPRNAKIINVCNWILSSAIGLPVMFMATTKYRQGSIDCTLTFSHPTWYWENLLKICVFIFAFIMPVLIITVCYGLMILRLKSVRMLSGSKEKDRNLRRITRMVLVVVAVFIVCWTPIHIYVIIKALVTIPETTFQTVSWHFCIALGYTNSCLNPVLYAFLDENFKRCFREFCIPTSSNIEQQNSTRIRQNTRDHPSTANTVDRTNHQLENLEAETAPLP

Kappa-type opioid receptor, sequence (P41144 whole entry): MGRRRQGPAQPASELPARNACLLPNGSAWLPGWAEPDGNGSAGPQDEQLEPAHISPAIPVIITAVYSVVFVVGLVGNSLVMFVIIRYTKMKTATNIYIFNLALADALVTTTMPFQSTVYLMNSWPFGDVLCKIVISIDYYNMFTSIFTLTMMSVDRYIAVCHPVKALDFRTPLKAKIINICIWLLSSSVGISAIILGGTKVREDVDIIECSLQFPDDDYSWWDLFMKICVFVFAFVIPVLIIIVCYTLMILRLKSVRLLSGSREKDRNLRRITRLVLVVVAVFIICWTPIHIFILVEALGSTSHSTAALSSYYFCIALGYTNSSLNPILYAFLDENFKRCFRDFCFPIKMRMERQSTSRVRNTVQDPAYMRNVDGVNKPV
Delta-type opioid receptor, sequence (P41143 whole entry): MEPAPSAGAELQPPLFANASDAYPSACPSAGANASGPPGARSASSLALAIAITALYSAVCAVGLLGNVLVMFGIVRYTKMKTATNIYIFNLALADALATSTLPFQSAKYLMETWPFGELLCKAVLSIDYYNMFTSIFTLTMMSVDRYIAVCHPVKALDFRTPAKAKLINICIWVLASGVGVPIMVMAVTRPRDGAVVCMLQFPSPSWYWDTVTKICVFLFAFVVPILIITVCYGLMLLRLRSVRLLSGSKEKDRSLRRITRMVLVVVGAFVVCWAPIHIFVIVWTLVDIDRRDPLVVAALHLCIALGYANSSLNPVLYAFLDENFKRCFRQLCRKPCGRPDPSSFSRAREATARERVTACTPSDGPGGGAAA

Row | Structure (SMILES) | pKi [1] | pKi [2] | Intrinsic activity [3]
1 | CS(=O)(=O)CC(=O)N(CCN1[C@@H]2CC[C@H]1C[C@@H](c1cccc(C(N)=O)c1)C2)Cc1ccc(C(F)(F)F)cc1.O=C(O)C(F)(F)F | 7 to 10.5 | 7 to 10.5 | < 40%
2 | NC(=O)c1cccc([C@H]2C[C@H]3CC[C@@H](C2)N3CCN(CC2CCC2)C(=O)[C@@H](O)CO)c1.O=C(O)C(F)(F)F | 7 to 10.5 | 7 to 10.5 | < 40%
3 | CC(C)(C)C(=O)N(CCN1[C@@H]2CC[C@H]1C[C@@H](c1cccc(C(N)=O)c1)C2)Cc1c(F)cccc1F.O=C(O)C(F)(F)F | 7 to 10.5 | 7 to 10.5 | < 40%
4 | CS(=O)(=O)CC(=O)N(CCN1[C@@H]2CC[C@H]1C[C@@H](c1cccc(C(N)=O)c1)C2)Cc1cccc(F)c1.O=C(O)C(F)(F)F | 7 to 10.5 | 7 to 10.5 | < 40%
5 | NC(=O)c1cccc([C@H]2C[C@H]3CC[C@@H](C2)N3CCN(CC2CCCCC2)C(=O)NCc2ccc(F)cc2)c1 | 7 to 10.5 | 7 to 10.5 | < 40%
6 | O=C(C1CCCC1)N(CCN1[C@@H]2CC[C@H]1C[C@@H](c1cccc(O)c1)C2)Cc1ccccc1 (single isomer, unassigned) | 7 to 10.5 | 7 to 10.5 | < 40%
7 | CC(C)C[C@H](O)C(=O)N(CCN1[C@@H]2CC[C@H]1C[C@@H](c1cccc(O)c1)C2)CC1CCCCC1 | 7 to 10.5 | 7 to 10.5 | < 40%
8 | COCC(=O)N(CCN1[C@@H]2CC[C@H]1C[C@@H](c1cccc(C(N)=O)c1)C2)Cc1c(F)cccc1F.O=C(O)C(F)(F)F | 7 to 10.5 | 7 to 10.5 | < 40%
9 | CC(C)CC(=O)N(CCN1[C@@H]2CC[C@H]1C[C@@H](c1cccc(O)c1)C2)Cc1cccc(F)c1 | 7 to 10.5 | 7 to 10.5 | < 40%
10 | O=C(O)CCC(=O)N(CCN1[C@@H]2CC[C@H]1C[C@@H](c1cccc(O)c1)C2)Cc1ccccc1 | 7 to 10.5 | 7 to 10.5 | < 40%
11 | CC(C)(C)C(=O)N(CCN1[C@@H]2CC[C@H]1C[C@@H](c1cccc(C(N)=O)c1)C2)CC1CCCC1.O=C(O)C(F)(F)F | 7 to 10.5 | 7 to 10.5 | < 40%
12 | CC(=O)N(Cc1ccccc1)[C@H](C)CN1[C@@H]2CC[C@H]1C[C@@H](c1cccc(O)c1)C2 | 7 to 10.5 | 7 to 10.5 | < 40%
13 | CC(C)(CO)C(=O)N(CCN1[C@@H]2CC[C@H]1C[C@@H](c1cccc(C(N)=O)c1)C2)Cc1c(F)cccc1F.O=C(O)C(F)(F)F | 7 to 10.5 | 7 to 10.5 | < 40%
14 | C[C@H](O)C(=O)N(CCN1[C@@H]2CC[C@H]1C[C@@H](c1cccc(C(N)=O)c1)C2)CC1CCC(F)(F)CC1.O=C(O)C(F)(F)F | 7 to 10.5 | 7 to 10.5 | < 40%
15 | O=C([C@@H](O)C1CCCCC1)N(CCN1[C@@H]2CC[C@H]1C[C@@H](c1cccc(O)c1)C2)CC1CCCCC1 | 7 to 10.5 | 7 to 10.5 | < 40%
16 | CC1(C)C(CN(CCN2[C@@H]3CC[C@H]2C[C@@H](c2cccc(C(N)=O)c2)C3)C(=O)CO)C1(C)C | 7 to 10.5 | 7 to 10.5 | < 40%
17 | O=C(CO)N(CCN1[C@@H]2CC[C@H]1C[C@@H](c1cccc(O)c1)C2)Cc1cccc(F)c1 | 7 to 10.5 | 7 to 10.5 | < 40%
18 | NC(=O)c1cccc([C@H]2C[C@H]3CC[C@@H](C2)N3CCN(CC2CCCCC2)C(=O)CCC(=O)O)c1 | 7 to 10.5 | 7 to 10.5 | < 40%
19 | CS(=O)(=O)CC(=O)N(CCc1ccc(F)cc1)CCN1[C@@H]2CC[C@H]1C[C@@H](c1cccc(C(N)=O)c1)C2.O=C(O)C(F)(F)F | 7 to 10.5 | 7 to 10.5 | < 40%
20 | CCCCCNC(=O)N(CCN1[C@@H]2CC[C@H]1C[C@@H](c1cccc(C(N)=O)c1)C2)CC1CCCCC1 | 7 to 10.5 | 7 to 10.5 | < 40%
21 | COC(=O)CCC(=O)N(CCN1[C@@H]2CC[C@H]1C[C@@H](c1cccc(O)c1)C2)CC1CCCCC1 | 7 to 10.5 | 7 to 10.5 | < 40%
22 | CS(=O)(=O)CC(=O)N(CCc1ccc(O)cc1)CCN1[C@@H]2CC[C@H]1C[C@@H](c1cccc(C(N)=O)c1)C2.O=C(O)C(F)(F)F | 7 to 10.5 | 7 to 10.5 | < 40%
23 | O=C([C@@H](O)Cc1ccccc1)N(CCN1[C@@H]2CC[C@H]1C[C@@H](c1cccc(O)c1)C2)CC1CCCCC1 | 7 to 10.5 | 7 to 10.5 | < 40%
24 | CC(C)(C)OCC(=O)N(CCN1[C@@H]2CC[C@H]1C[C@@H](c1cccc(C(N)=O)c1)C2)Cc1c(F)cccc1F.O=C(O)C(F)(F)F | 7 to 10.5 | 7 to 10.5 | < 40%
25 | NC(=O)c1cccc([C@H]2C[C@H]3CC[C@@H](C2)N3CCN(CC2CCCCC2)C(=O)C2(O)CC2)c1.O=C(O)C(F)(F)F | 7 to 10.5 | 7 to 10.5 | < 40%

Row | Structure (SMILES) | pKi [1] | pKi [2] | Intrinsic activity [3]
26 | NCC(=O)N(CCN1[C@@H]2CC[C@H]1C[C@@H](c1cccc(C(N)=O)c1)C2)CC1CCCCC1 | 7 to 10.5 | 7 to 10.5 | < 40%
27 | NC(=O)c1cccc([C@H]2C[C@H]3CC[C@@H](C2)N3CCN(CC2CCCCC2)C(=O)Cc2ccccc2)c1 | 7 to 10.5 | 7 to 10.5 | < 40%
28 | NC(=O)c1cccc([C@H]2C[C@H]3CC[C@@H](C2)N3CCN(CCCc2ccccc2)C(=O)CO)c1 | 7 to 10.5 | 7 to 10.5 | < 40%
29 | NC(=O)c1cccc([C@H]2C[C@H]3CC[C@@H](C2)N3CCN(CCc2ccccc2)C(=O)[C@@H](O)CO)c1.O=C(O)C(F)(F)F | 7 to 10.5 | 7 to 10.5 | < 40%
30 | NC(=O)c1cccc([C@H]2C[C@H]3CC[C@@H](C2)N3CCN(CC2CCC2)C(=O)[C@H](O)CO)c1.O=C(O)C(F)(F)F | 7 to 10.5 | 7 to 10.5 | < 40%
31 | COc1ccc(NC(=O)N(CCN2[C@@H]3CC[C@H]2C[C@@H](c2cccc(O)c2)C3)CC2CCCCC2)cc1OC | 7 to 10.5 | 7 to 10.5 | < 40%
32 | NC(=O)c1cccc([C@H]2C[C@H]3CC[C@@H](C2)N3CCCN(Cc2ccccc2)C(=O)[C@@H](O)CO)c1.O=C(O)C(F)(F)F | 7 to 10.5 | 7 to 10.5 | < 40%
33 | C[C@H](CN1[C@@H]2CC[C@H]1C[C@@H](c1cccc(O)c1)C2)N(Cc1ccccc1)C(=O)CC1CCCC1 | 7 to 10.5 | 7 to 10.5 | < 40%
34 | NC(=O)c1cccc([C@H]2C[C@H]3CC[C@@H](C2)N3CCN(CC2CCCC2)C(=O)CCO)c1.O=C(O)C(F)(F)F | 7 to 10.5 | 7 to 10.5 | < 40%
35 | CC(=O)OCC(=O)N(CCN1[C@@H]2CC[C@H]1C[C@@H](c1cccc(O)c1)C2)Cc1ccccc1.O=C(O)C(F)(F)F | 7 to 10.5 | 7 to 10.5 | < 40%
36 | NC(=O)c1cccc([C@H]2C[C@H]3CC[C@@H](C2)N3CCN(Cc2ccc(C(F)(F)F)cc2)C(=O)CO)c1.O=C(O)C(F)(F)F | 7 to 10.5 | 7 to 10.5 | < 40%
37 | CC(C)NC(=O)N(CCN1[C@@H]2CC[C@H]1C[C@@H](c1cccc(C(N)=O)c1)C2)CC1CCCCC1 | 7 to 10.5 | 7 to 10.5 | < 40%
38 | CCCCCNC(=O)N(CCN1[C@@H]2CC[C@H]1C[C@@H](c1cccc(O)c1)C2)CC1CCCCC1 | 7 to 10.5 | 7 to 10.5 | < 40%
39 | CC(C)(CO)C(=O)N(CCN1[C@@H]2CC[C@H]1C[C@@H](c1cccc(C(N)=O)c1)C2)CC1CCCC1.O=C(O)C(F)(F)F | 7 to 10.5 | 7 to 10.5 | < 40%
40 | O=C(O)CC1(CC(=O)N(CCN2[C@@H]3CC[C@H]2C[C@@H](c2cccc(O)c2)C3)CC2CCCCC2)CCCCC1 | 7 to 10.5 | 7 to 10.5 | < 40%
41 | CN(C)CCCC(=O)N(CCN1[C@@H]2CC[C@H]1C[C@@H](c1cccc(C(N)=O)c1)C2)CC1CCCCC1 | 7 to 10.5 | 7 to 10.5 | < 40%
42 | CN(C)CC(=O)N(CCN1[C@@H]2CC[C@H]1C[C@@H](c1cccc(C(N)=O)c1)C2)CC1CCCCC1 | 7 to 10.5 | 7 to 10.5 | < 40%
43 | O=C(O)CCC(=O)N(CCN1[C@@H]2CC[C@H]1C[C@@H](c1cccc(O)c1)C2)Cc1c(F)cccc1F | 7 to 10.5 | 7 to 10.5 | < 40%
44 | CC(CO)(CO)C(=O)N(CCN1[C@@H]2CC[C@H]1C[C@@H](c1cccc(C(N)=O)c1)C2)CC1CCC1.O=C(O)C(F)(F)F | 7 to 10.5 | 7 to 10.5 | < 40%
45 | O=C(O)CCC(=O)N(CCN1[C@@H]2CC[C@H]1C[C@@H](c1cccc(O)c1)C2)CC1CCCCC1 (single isomer, unassigned) | 7 to 10.5 | 7 to 10.5 | < 40%
46 | CS(=O)(=O)CC(=O)N(CCN1[C@@H]2CC[C@H]1C[C@@H](c1cccc(C(N)=O)c1)C2)CC1CCC(F)(F)CC1.O=C(O)C(F)(F)F | 7 to 10.5 | 7 to 10.5 | < 40%
47 | O=C(Nc1ccc2c(c1)OCO2)N(CCN1[C@@H]2CC[C@H]1C[C@@H](c1cccc(O)c1)C2)CC1CCCCC1 | 7 to 10.5 | 7 to 10.5 | < 40%
48 | NC(=O)c1cccc([C@H]2C[C@H]3CC[C@@H](C2)N3CCN(Cc2cccc(F)c2)C(=O)CO)c1.O=C(O)C(F)(F)F | 7 to 10.5 | 7 to 10.5 | < 40%
49 | CN(C)S(=O)(=O)N(CCN1[C@@H]2CC[C@H]1C[C@@H](c1cccc(C(N)=O)c1)C2)Cc1c(F)cccc1F.O=C(O)C(F)(F)F | 7 to 10.5 | 7 to 10.5 | < 40%
50 | N#CCC(=O)N(CCN1[C@@H]2CC[C@H]1C[C@@H](c1cccc(C(N)=O)c1)C2)Cc1c(F)cccc1F.O=C(O)C(F)(F)F | 7 to 10.5 | 7 to 10.5 | < 40%
